Reference: US12404242B2, “Compositions and methods for making and using small molecules in the treatment of cancer” (Reglagene, Inc., priority 2021, dated 2025)
Values after ≈ are worked out from the molar mass of the structure shown.

Key:
[1] = tested on: RWPE1 cells; assay: Cell viability (AlamarBlue), RWPE1 normal prostate cells; type: cell-based, human; set-up: key to EC50 (μM) in RWPE1 cells: Inactive: less than 50% inhibition at the highest concentration tested at 50 μM; conditions: normal prostate cell line; for EC50: Homo sapiens, RWPE-1, 72 hours of treatment; for EC50 (μM) in RWPE1 cells: 72 hours of treatment
Description: (§1) In another exemplary method, half maximal effective concentration (EC50) was determined for some compounds and their isomers as disclosed herein in a variety of human cancer cell lines. In brief, cells from two prostate cancer cell lines (LNCaP, 22RV1), one glioblastoma cell line (U87), one breast cancer cell line (MCF7), a glioma cell line (LN18), a normal prostate cell line (RWPE1), and a glioblastoma cell line (T98G) were plated in a multi-well plate. After 24 hours, one of the compounds herein was added to the well at increasing concentrations. After 72 hours of treatment, cell viability was assessed using AlamrBlue® (Invitrogen) and fluorescence was read using the CLARIOstar Plus Multilabel Plate Reader (BMG Labtech). Samples were normalized to no treatment controls. EC50 values were determined using GraphPad Prism.

[2] = tested on: U87 cells; assay: Cell viability (AlamarBlue), U87 glioblastoma cells; type: cell-based, human; set-up: key to EC50 (μM) in U87 cells: Inactive: less than 50% inhibition at the highest concentration tested at 50 μM; conditions: 72 hours of treatment
Description: as §1

[3] = tested on: LNCaP cells; assay: Cell viability (AlamarBlue), LNCaP prostate cancer cells; type: cell-based, human; set-up: key to EC50 (μM) in LNCaP cells: Inactive: less than 50% inhibition at the highest concentration tested at 50 μM; conditions: 72 hours of treatment
Description: as §1

[4] = tested on: 22RV1 cells; assay: Cell viability (AlamarBlue), 22RV1 prostate cancer cells; type: cell-based, human; set-up: key to EC50 (μM) in 22RV1 cells: Inactive: less than 50% inhibition at the highest concentration tested at 50 μM; conditions: 72 hours of treatment
Description: as §1

[5] = Kinetic solubility in aqueous PBS buffer (HPLC-MS); type: physicochemical; conditions: kinetic from dmso stock, DMSO stock mixed with aqueous PBS buffer, filtered, read-out: Kinetic Solubility
Description: In another exemplary method, central nervous system multiparameter optimization (CNS MPO) score and kinetic solubility of selected compounds was determined. CNS MPO score for compounds and their isomers disclosed herein were calculated using an algorithm that uses a weighted scoring function assessing 6 key physicochemical properties (clogP, clogD, MW, TPSA, HBD, and pKa) for blood-brain-barrier (BBB penetration). CNS MPO score ranged from 0 and 6.0 with scores≥4.0 used as a cut-off to select compounds that can have a high probability of accumulating in the CNS. Kinetic solubility of a compound is the maximum solubility of the fastest precipitating species of the compound. Kinetic solubility was determined by preparing a concentrated stock solution for compounds and their isomers disclosed herein in an organic solvent (DMSO), after which the solution was mixed with an aqueous PBS buffer and then filtered. Filtrate was tested to quantify the kinetic solubilty using HPLC-MS calibration curve. The CNS MPO Score and kinetic solubility of the compounds tested are provided in Table 7 where “ND” means not determined.

In the case of `COC1CCC(C(=O)NC(=O)Nc2ccc(Oc3ncc(Cl)cn3)c(F)c2)CC1` (single isomer, unassigned) [Compound 14A, N-((4-((5-chloropyrimidin-2-yl)oxy)-3-fluorophenyl)carbamoyl)-4-methoxycyclohexane-1-carboxamide], the EC50 [1] is reported as 1.3 µM, the EC50 ([2]; Homo sapiens, U-87 MG, 72 h) is reported as 1.3 µM and the EC50 ([3]; Homo sapiens, LNCaP, 72 h) is reported as 1.8 µM. The EC50 ([4]; Homo sapiens, 22Rv1, 72 h) was 1.1 µM.
With `COC1CCC(C(=O)NC(=O)Nc2ccc(Oc3ncc(Cl)cn3)c(F)c2)CC1` (single isomer, unassigned) [Compound 14B, N-((4-((5-chloropyrimidin-2-yl)oxy)-3-fluorophenyl)carbamoyl)-4-methoxycyclohexane-1-carboxamide] the “EC50 (μM) in RWPE1 cells” value [1] was “Inactive”, the “EC50 (μM) in U87 cells” value [2] was “Inactive” and the “EC50 (μM) in 22RV1 cells” value [4] was “Inactive”.
With `COC1CC(C(=O)NC(=O)Nc2ccc(Oc3ccc(F)cn3)c(C)c2)C1` (single isomer, unassigned) [Compound 15B, N-((4-((5-fluoropyridin-2-yl)oxy)-3-methylphenyl)carbamoyl)-3-methoxycyclobutanecarboxamide] the “EC50 (μM) in RWPE1 cells” value [1] was “Inactive”, the EC50 [2] was 22 µM and the EC50 [3] was 3.9 µM. It also gave an EC50 [4] of 17.3 µM.
For `COC1CC(C(=O)NC(=O)Nc2ccc(Oc3ccc(C#N)cn3)c(C)c2)C1` (single isomer, unassigned) [Compound 16B, N-((4-((5-cyanopyridin-2-yl)oxy)-3-methylphenyl)carbamoyl)-3-methoxycyclobutane-1-carboxamide], the “EC50 (μM) in RWPE1 cells” value [1] was “Inactive”, the EC50 [2] was 24 µM and the EC50 [3] was 5 µM. The EC50 [4] was 21.2 µM.
For `COC1CC(C(=O)NC(=O)Nc2ccc(Oc3ccc(Cl)cn3)c(C)c2)C1` (single isomer, unassigned) [Compound 19B, 1-{4-[(5-chloropyridin-2-yl)oxy]-3-methylphenyl}-3-(3-methoxycyclobutanecarbonyl) urea], the “EC50 (μM) in RWPE1 cells” value [1] was “Inactive”, the EC50 [2] was 13.7 µM and the EC50 [3] was 1.3 µM. It also gave an EC50 [4] of 4.2 µM.
In the case of `COC1CC(C(=O)NC(=O)Nc2ccc(Oc3ncc(Cl)cn3)c(C)c2)C1` (single isomer, unassigned) [Compound 20B, N-((4-((5-chloropyrimidin-2-yl)oxy)-3-methylphenyl)carbamoyl)-3-methoxycyclobutane-1-carboxamide], the “EC50 (μM) in RWPE1 cells” value [1] is reported as “Inactive”, the EC50 [2] is reported as 31.2 µM and the EC50 [3] is reported as 5 µM. The EC50 [4] was 15.3 µM.
In the case of `COC1CC(C(=O)NC(=O)Nc2ccc(Oc3nccs3)c(C)c2)C1` (single isomer, unassigned) [Compound 45A, 3-methoxy-N-((3-methyl-4-(thiazol-2-yloxy)phenyl)carbamoyl)cyclobutane-1-carboxamide], the “EC50 (μM) in RWPE1 cells” value [1] is reported as “Inactive”, the EC50 [2] is reported as 3.7 µM and the EC50 [3] is reported as 0.9 µM. For the same compound, the EC50 [4] was 2.8 µM.
For `COC1CC(C(=O)NC(=O)Nc2ccc(Oc3nccs3)c(C)c2)C1` (single isomer, unassigned) [Compound 45B, 3-methoxy-N-((3-methyl-4-(thiazol-2-yloxy)phenyl)carbamoyl)cyclobutane-1-carboxamide], the “EC50 (μM) in RWPE1 cells” value [1] was “Inactive”, the EC50 [2] was 12.2 µM and the EC50 [3] was 4 µM. For the same compound, the EC50 [4] was 14.2 µM.
With `COC1CCC(C(=O)NC(=O)Nc2ccc(Oc3ccc(C#N)cn3)c(C)c2)CC1` (centres unmarked) [Compound 6, 3-{4-[(5-cyanopyridin-2-yl)oxy]-3-methylphenyl}-1-(4-methoxycyclohexanecarbonyl)urea] the solubility kinetic [5] was 0.53 µM (≈ 0.216 µg/mL).
In the case of `COC1CC(C(=O)NC(=O)Nc2ccc(Oc3ccc(F)cn3)c(C)c2)C1` (centres unmarked) [Compound 15, N-((4-((5-fluoropyridin-2-yl)oxy)-3-methylphenyl)carbamoyl)-3-methoxycyclobutane-1-carboxamide], the solubility kinetic [5] is reported as 14.7 µM (≈ 5.48 µg/mL).
`COC1CC(C(=O)NC(=O)Nc2ccc(Oc3ccc(C#N)cn3)c(C)c2)C1` (centres unmarked) [Compound 16, N-((4-((5-cyanopyridin-2-yl)oxy)-3-methylphenyl)carbamoyl)-3-methoxycyclobutane-1-carboxamide] showed a solubility kinetic [5] of 11.6 µM (≈ 4.41 µg/mL).
In the case of `COC1CC(C(=O)NC(=O)Nc2ccc(Oc3ncc(Cl)cn3)c(C)c2)C1` (centres unmarked) [Compound 20, N-((4-((5-chloropyrimidin-2-yl)oxy)-3-methylphenyl)carbamoyl)-3-methoxycyclobutane-1-carboxamide], the solubility kinetic [5] is reported as 7.1 µM (≈ 2.77 µg/mL).
In the case of `COC1CCC(C(=O)NC(=O)Nc2ccc(Oc3ncco3)c(C)c2)CC1` (centres unmarked) [Compound 21, 1-(4-methoxycyclohexanecarbonyl)-3-[3-methyl-4-(1,3-oxazol-2-yloxy)phenyl]urea], the EC50 [1] is reported as 33 µM, the EC50 ([2]; Homo sapiens, U-87 MG, 72 h) is reported as 20.8 µM and the EC50 ([3]; Homo sapiens, LNCaP, 72 h) is reported as 19.7 µM. It also gave an EC50 ([4]; Homo sapiens, 22Rv1, 72 h) of 24 µM.
In the case of `COC1CCC(C(=O)NC(=O)Nc2ccc(Oc3cccnn3)c(C)c2)CC1` (centres unmarked) [Compound 22, 1-(4-methoxycyclohexanecarbonyl)-3-[3-methyl-4-(pyridazin-3-yloxy)phenyl]urea], the “EC50 (μM) in RWPE1 cells” value [1] is reported as “Inactive”, the “EC50 (μM) in U87 cells” value [2] is reported as “Inactive” and the “EC50 (μM) in LNCaP cells” value [3] is reported as “Inactive”. The “EC50 (μM) in 22RV1 cells” value [4] was “Inactive”.
In the case of `COC1CC(C(=O)NC(=O)Nc2ccc(Oc3nccs3)c(C)c2)C1` (centres unmarked) [Compound 45, 3-methoxy-N-((3-methyl-4-(thiazol-2-yloxy)phenyl)carbamoyl)cyclobutane-1-carboxamide], the solubility kinetic [5] is reported as 58.4 µM (≈ 21.1 µg/mL).
In the case of `COC1CCC(C(=O)NC(=O)Nc2ccc(Oc3cnc(N4CCOCC4)nc3)c(C)c2)CC1` (centres unmarked) [Compound 46, 4-methoxy-N-((3-methyl-4-((2-morpholinopyrimidin-5-yl)oxy)phenyl)carbamoyl)cyclohexane-1-carboxamide], the “EC50 (μM) in U87 cells” value [2] is reported as “Inactive”, the EC50 ([3]; Homo sapiens, LNCaP, 72 h) is reported as 2.9 µM and the solubility kinetic [5] is reported as 0.39 µM (≈ 0.183 µg/mL). The EC50 ([4]; Homo sapiens, 22Rv1, 72 h) was 8 µM.
Work on `COCCOC1CC(C(=O)NC(=O)Nc2ccc(Oc3ncc(Cl)cn3)c(C)c2)C1` (centres unmarked) [Compound 48, N-((4-((5-chloropyrimidin-2-yl)oxy)-3-methylphenyl)carbamoyl)-3-(2-methoxyethoxy)cyclobutane-1-carboxamide] yielded an EC50 ([2]; Homo sapiens, U-87 MG, 72 h) of 6.4 µM, an EC50 ([3]; Homo sapiens, LNCaP, 72 h) of 12.4 µM and a solubility kinetic [5] of 84.2 µM (≈ 36.6 µg/mL). It also gave an EC50 ([4]; Homo sapiens, 22Rv1, 72 h) of 3.2 µM.
`COCCOC1CC(C(=O)NC(=O)Nc2ccc(Oc3ccc(Cl)cn3)c(C)c2)C1` (centres unmarked) [Compound 49, N-((4-((5-chloropyridin-2-yl)oxy)-3-methylphenyl)carbamoyl)-3-(2-methoxyethoxy)cyclobutane-1-carboxamide] gave an EC50 ([2]; Homo sapiens, U-87 MG, 72 h) of 3.7 µM, an EC50 ([3]; Homo sapiens, LNCaP, 72 h) of 11.8 µM and a solubility kinetic [5] of 37.5 µM (≈ 16.3 µg/mL). It also gave an EC50 ([4]; Homo sapiens, 22Rv1, 72 h) of 1.3 µM.
For `COC1CC(C(=O)NC(=O)Nc2ccc(Oc3ncns3)c(C)c2)C1` (centres unmarked) [Compound 57, N-((4-((1,2,4-thiadiazol-5-yl)oxy)-3-methylphenyl)carbamoyl)-3-methoxycyclobutane-1-carboxamide], the EC50 ([2]; Homo sapiens, U-87 MG, 72 h) was 13.5 µM, the EC50 ([3]; Homo sapiens, LNCaP, 72 h) was 3.1 µM and the solubility kinetic [5] was 75 µM (≈ 27.2 µg/mL). It also gave an EC50 ([4]; Homo sapiens, 22Rv1, 72 h) of 6.3 µM.
`COC1CC(C(=O)NC(=O)Nc2ccc(Oc3ncc(C#N)s3)c(C)c2)C1` (centres unmarked) [Compound 62, N-((4-((5-cyanothiazol-2-yl)oxy)-3-methylphenyl)carbamoyl)-3-methoxycyclobutane-1-carboxamide] gave an EC50 ([2]; Homo sapiens, U-87 MG, 72 h) of 5.4 µM, an EC50 ([3]; Homo sapiens, LNCaP, 72 h) of 21 µM and an EC50 ([4]; Homo sapiens, 22Rv1, 72 h) of 1 µM.
In the case of `COC1(C(=O)NC(=O)Nc2ccc(Oc3ncc(Cl)cn3)c(C)c2)CC1` [Compound 66, N-((4-((5-chloropyrimidin-2-yl)oxy)-3-methylphenyl)carbamoyl)-1-methoxycyclopropane-1-carboxamide], the “EC50 (μM) in U87 cells” value [2] is reported as “Inactive”, the “EC50 (μM) in LNCaP cells” value [3] is reported as “Inactive” and the “EC50 (μM) in 22RV1 cells” value [4] is reported as “Inactive”.
For `COC1(C(=O)NC(=O)Nc2ccc(Oc3nccs3)c(C)c2)CC1` [Compound 68, 1-methoxy-N-((3-methyl-4-(thiazol-2-yloxy)phenyl)carbamoyl)cyclopropane-1-carboxamide], the “EC50 (μM) in U87 cells” value [2] was “Inactive”, the “EC50 (μM) in LNCaP cells” value [3] was “Inactive” and the “EC50 (μM) in 22RV1 cells” value [4] was “Inactive”.
With `COC1(C(=O)NC(=O)Nc2ccc(Oc3ncccn3)c(C)c2)CC1` [Compound 69, 1-methoxy-N-((3-methyl-4-(pyrimidin-2-yloxy)phenyl)carbamoyl)cyclopropane-1-carboxamide] the “EC50 (μM) in U87 cells” value [2] was “Inactive”, the “EC50 (μM) in LNCaP cells” value [3] was “Inactive” and the “EC50 (μM) in 22RV1 cells” value [4] was “Inactive”.
Compound `COC12CC(C(=O)NC(=O)Nc3ccc(Oc4ncc(Cl)cn4)c(C)c3)(C1)C2` [Compound 85, N-((4-((5-chloropyrimidin-2-yl)oxy)-3-methylphenyl)carbamoyl)-3-methoxybicyclo[1.1.1]pentane-1-carboxamide] has an EC50 ([2]; Homo sapiens, U-87 MG, 72 h) of 0.06 µM and a solubility kinetic [5] of 2.21 µM (≈ 0.89 µg/mL).
